Experimental data reported in US20040024048A1, “Medicaments for treating dementia” (priority 2000, published 2004).
Where two headings read alike, the source gives them in different places.

Legend:
aging animals = conditions: cited from earlier work
[1] = tested on: patients with HIV dementia; conditions: cited from earlier work
[2] = tested on: patients with clinical manifestations of dementing deficits; assay: mini-mental state examination (MMSE) in dementia patients; assay type: in vivo, human
From the text: The mini-mental state examination test was published by Marshall Folstein in 1975 and was originally intended as a test to differentiate cognitive functions (Folstein et al., 1975). Because the test is short, it is now used as screening test in studies for establishing inclusion/exclusion criteria. The test covers orientation, attention, short- and medium-term memory, word-finding, reading, writing, and in addition a command to perform an action must be obeyed. The tasks in the test are designed so that they can normally be solved without difficulty by people without cognitive impairment. The maximum score achievable is 30, and a score of less than 24 indicates a dementing disorder. The following levels are generally differentiated (Zec et al., 1992).
(§1) Patients with clinical manifestations of dementing deficits and suspected brain damage based on Alzheimer's dementia or vascular dementia or a similar suspected diagnosis were treated with medicines to improve the symptomatic cognitive deficits (nootropics). Since all the active ingredients currently available in the dementia sector provide only marginal improvements, it was justified, despite the disappointing first study, to administer α-lipoic acid in high dose to patients on the basis of this basic therapy. The effect of the therapy was assessed using standardized clinical dementia assessment scales which are usual now and which are distinguished by high reliability. This comprises the mini-mental state examination (MMSE) or the Alzheimer's disease assessment scale (ADAS). The advantage of these clinical instruments is that the severity of the dementia can be established reliably, irrespective of the organic cerebral basis, which is usually not unambiguous, of the clinical picture of dementia.

[3] = tested on: patients with clinical manifestations of dementing deficits; assay: Alzheimer's disease assessment scale (ADAS / ADAS-Cog) in dementia patients; assay type: in vivo, human
From the text: A further test for establishing the neuropsychological status of a dementia patient is the “Alzheimer's Disease Assessment Scale-Cognitive Subscale (ADAS-Cog)” (Rosen et al., 1984). The Alzheimer Disease Assessment Scale was invented by W. G. Rosen, R. C. Mohs, 1988, Rosen and K. L. Davis, 1984, and the German version was produced by R. Ihl and G. Weyer, Beltz Test 1993. The ADAS was not originally intended to be a diagnostic instrument, but separates dementing people from healthy control subjects of the same age very well. The following criteria can be distinguished in the ADAS: cognitive area, noncogn. area, memory, orientation/praxis, motor function, depression, psychotic symptoms, concentration/cooperation, speech. In the version used here, speech is included in the cognitive area, and thus a max. minus score of 70 is possible. It was possible to show for people with Alzheimer-type dementia that the complete scale increases by 5 to 7 points on average over the course of 12 months, and by 14 points on average over the course of 24 months. The items in the cognitive part are most sensitive in this regard.
as §1

[4] = tested on: patients with sclerotic dementia and involutional depressions; conditions: 25-50 mg, patent calls findings unconfirmed and misleading; cited from earlier work
aged rats = conditions: high dose, cited from earlier work
[5] = tested on: patients with clinical manifestations of dementing deficits; assay: Global Deterioration Scale (GDS) in dementia patients; assay type: in vivo, human; conditions: GDS 4/5 at start
From the text: Standardized methods are developed for routine dementia screening, e.g. the mini-mental state examination (MMSE) or the Alzheimer's Disease Assessment Scale (ADAS). Further methods would be: GDS: Global Deterioriation Scale (Reisberg et al., 1982), FAST: Functional Assessment Staging (Reisberg, 1988).

[6] = Patient 2, Alzheimer's dementia, Aricept 5/10 mg/day for 12 months, before lipoic acid
[7] = Patient 3, Alzheimer's dementia, Aricept 5 mg/day 13 months plus 600 mg vitamin E
[8] = Patient 4, Alzheimer's dementia, Aricept 5/10 mg/day 19 months, 300 mg aspirin and 600 mg vitamin E 20 months
[9] = Patient 1, Alzheimer's dementia, 4 weeks additional 600 mg a-lipoic acid on Aricept
[10] = Patient 2, additional 600 mg lipoic acid over 7 months on Aricept, Remotiv, vitamin E
[11] = Patient 3, additional 600 mg lipoic acid on Aricept and vitamin E
[12] = Patient 4, 600 mg lipoic acid for 8 months on Aricept, aspirin, vitamin E
[13] = Patient 6, 600 mg lipoic acid on basic therapy
[14] = Patient 11, dementia plus parkinsonism, 600 mg lipoic acid 4 months on Aricept and Madopar T
[15] = Patient 8, 600 mg lipoic acid 4 weeks, Aricept 8 weeks
[16] = patients with HIV dementia, administration of α-lipoic acid

## O=C(O)CCCCC1CCSS1 (stereo not drawn) [R(+)-α-lipoic acid]
Aging animals
  influence on motor functions: beneficial influence

## C#CCN(C)[C@H](C)Cc1ccccc1 [deprenyl]
[1]; demented patients, active control drug in the HIV dementia study
  effects on cognitive performance: confirmed its known beneficial effects

## COc1cc2c(cc1OC)C(=O)C(CC1CCN(Cc3ccccc3)CC1)C2 (centres unmarked) [Aricept, donepezil]
[2]; Patient 1, Alzheimer's dementia, Aricept 5/10 mg/day for 4 months, before lipoic acid
  deterioration of cognitive status in the MMSE: 1 point
[2]; [6]
  deterioration in the MMSE score: 7
[2]; [7]
  MMSE score deterioration: 2
[2]; [8]
  decrease in the MMSE score: 5
[2]; Patient 5, Alzheimer's dementia, Aricept 5/10 mg/day 24 months with Accuzide 20, Akatinol, 600 mg vitamin E
  deterioration in the MMSE score: 6
[2]; Patient 6, Alzheimer's dementia, Aricept 5/10 mg/day 13 months with aspirin 100, Rökan, 600 mg vitamin E
  deterioration in the MMSE score: 5
[2]; Patient 7, Alzheimer's dementia, Aricept 5 mg/day 6 months plus 600 mg vitamin E
  deterioration in the MMSE score: 6
[2]; Patient 9, Lewy body dementia, Aricept 5 mg 12 months, Madopar T and Madopar Depot, before lipoic acid
  MMSE score reached: 17
[3]; [6]
  ADAS score reached (deterioration): 53
[3]; [7]
  ADAS score increase: 14
[3]; [8]
  decrease of cognitive ability in the ADAS score: 9

## O=C(O)CCCCC1CCSS1 (stereo not drawn) [α-lipoic acid, 1,2-dithiolane-3-pentanoic acid]
[4]
  manifestations of dementia: improvement of manifestations of dementia
Aged rats; aged rats
  memory performance: improvement in memory performance
Aged rats; young animals
  memory performance: not in young animals
[2]; [9]
  MMSE score improvement: 2
[2]; [10]
  improvement in the MMSE score: 1 point
[2]; [11]
  MMSE score improvement: 1
[2]; [12]
  improvement in the MMSE score: 2
[2]; Patient 5, first 3 months of 600 mg lipoic acid on basic therapy
  MMSE score improvement: 1
[2]; [13]
  course of the dementia (MMSE) since lipoic acid: no further deterioration
[2]; Patient 7, after two months of 600 mg lipoic acid on Aricept and vitamin E
  improvement in the MMSE score: 1
[2]; Patient 8, Alzheimer's dementia, 600 mg lipoic acid 4 weeks, Aricept 8 weeks, score 18 at start of lipoic acid
  MMSE score now: 20
[2]; Patient 9, Lewy body dementia, 600 mg lipoic acid on Aricept and Madopar
  improvement in the MMSE score: 3
[2]; Patient 10, frontal cerebral atrophy, additional 600 mg lipoic acid on Exelon
  improvement in the MMSE score: 1
[2]; [14]
  MMSE score course: remained at the same level
[2]; Patient 12, frontal cerebral atrophy, 600 mg lipoic acid 4 weeks, Aricept 8 weeks, other drugs, from 16
  MMSE score reached: 18
[3]; [9]
  ADAS score decrease: 6
[3]; Patient 1, Alzheimer's dementia, after 4 weeks additional 600 mg a-lipoic acid on Aricept
  ADAS score reached: 18
[3]; [10]
  improvement in the ADAS score: 11 points
[3]; [11]
  ADAS score recovery: 2
[3]; [12]
  ADAS score went back: 3 points
[3]; [13]
  ADAS score loss: 8
[3]; Patient 7, 600 mg lipoic acid on Aricept and vitamin E
  ADAS course: remains constant
[3]; [15]
  ADAS score decline: 3
  ADAS score reached: 35 error points
[3]; [14]
  ADAS score course: remained at the same level
[3]; Patient 12, frontal cerebral atrophy, 600 mg lipoic acid 4 weeks, Aricept 8 weeks
  ADAS score decrease: 5
[3]; Patient 12, frontal cerebral atrophy, 600 mg lipoic acid 4 weeks, Aricept 8 weeks, from 41 points
  ADAS score reached: 36 points
[1]; patients with HIV dementia, 600 mg α-lipoic acid monotherapy
  effect on the cognitive function: no effect whatsoever
[1]; [16]
  learning: deterioration in learning
  verbal learning ability and memory: declined significantly
[5]; Patient 3, additional 600 mg lipoic acid
  GDS reached (improved): 4
[5]; Patient 5, 600 mg lipoic acid
  GDS level reached (improved by one level): 4
[5]; Patient 6, 600 mg lipoic acid
  GDS reached (improved): 4

## CCN(C)C(=O)Oc1cccc([C@H](C)N(C)C)c1 [Exelon]
[2]; Patient 10, frontal cerebral atrophy, Exelon 6 mg/day for 9 months
  MMSE score decrease: 5
